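All cell lines were grown in 96-well plates and treated with compound for 48 hours. TGI marks complete inhibition of growth.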
What was measured:
Assay in all cases: NCI-60 cell line screen, 48 h
[1] = tested on: NCI-H23 lung
[2] = tested on: EKVX NSCLC
[3] = tested on: RXF 393 renal
[4] = tested on: DLD-1 colon
[5] = tested on: SK-OV-3 ovarian
[6] = tested on: SR leukemia
[7] = tested on: DU-145 prostate
[8] = tested on: HOP-18 NSCLC
[9] = tested on: SF-268 CNS
[10] = tested on: COLO 205 colon
[11] = tested on: TK-10 renal
[12] = tested on: NCI-H226 lung
[13] = tested on: OVCAR-5 ovarian
[14] = tested on: HCT-15 colon
[15] = tested on: IGROV1 ovarian
[16] = tested on: RXF-631 renal
[17] = tested on: ACHN renal
[18] = tested on: HS 578T breast
[19] = tested on: 786-0 renal
[20] = tested on: CAKI-1 renal
[21] = tested on: A549 NSCLC
[22] = tested on: SF-539 CNS
[23] = tested on: LXFL 529 NSCLC
[24] = tested on: BT-549 breast
[25] = tested on: HCC-2998 colon
[26] = tested on: HCT-116 colon
[27] = tested on: UO-31 renal
[28] = tested on: KM20L2 colon
[29] = tested on: A498 renal
[30] = tested on: HOP-62 NSCLC
[31] = tested on: NCI-H460 lung
[32] = tested on: HOP-92 NSCLC
[33] = tested on: MOLT-4 leukemia
[34] = tested on: SNB-19 CNS
[35] = tested on: UACC-62 melanoma
[36] = tested on: SK-MEL-28 melanoma
[37] = tested on: DMS 114 small cell lung
[38] = tested on: LOX IMVI melanoma
[39] = tested on: UACC-257 melanoma
[40] = tested on: KM12 colon
[41] = tested on: OVCAR-4 ovarian
[42] = tested on: M14 melanoma
[43] = tested on: M19-MEL melanoma
[44] = tested on: U251 CNS
[45] = tested on: MCF7 breast
[46] = tested on: SK-MEL-5 melanoma
[47] = tested on: SNB-75 CNS
[48] = tested on: NCI-H522 lung
[49] = tested on: SF-295 CNS
[50] = tested on: SW-620 colon
[51] = tested on: MDA-N
[52] = tested on: SN12C renal
[53] = tested on: OVCAR-3 ovarian
[54] = tested on: OVCAR-8 ovarian
[55] = tested on: MDA-MB-435
[56] = tested on: PC-3 prostate
[57] = tested on: HL-60(TB) leukemia
[58] = tested on: CCRF-CEM leukemia
[59] = tested on: DMS 273 small cell lung
[60] = tested on: HT29 colon
[61] = tested on: RPMI-8226 leukemia
[62] = tested on: MALME-3M melanoma
[63] = tested on: T-47D breast
[64] = tested on: SK-MEL-2 melanoma
[65] = tested on: XF 498 CNS
[66] = tested on: K-562 leukemia
[67] = tested on: SNB-78 CNS

## COC(=O)NNc1c([N+](=O)[O-])cnn(-c2ccccc2)c1=O
[1]
  TGI: 5.82 µM
[2]
  TGI: 9.75 µM
[3]
  TGI: 10.1 µM
[4]
  TGI: 3.91 µM
[5]
  TGI: 17 µM
[6]
  TGI: 0.981 µM
[7]
  TGI: 16.9 µM
[8]
  TGI: 6.28 µM
[9]
  TGI: 7.71 µM
[10]
  TGI: 6.02 µM
[11]
  TGI: 32.5 µM
[12]
  TGI: 9.78 µM
[13]
  TGI: 8.23 µM
[14]
  TGI: 5.58 µM
[15]
  TGI: 36.2 µM
[16]
  TGI: 3.88 µM
[17]
  TGI: 10.2 µM
[18]
  TGI: 6.98 µM
[19]
  TGI: 7.39 µM
[20]
  TGI: 8.24 µM
[21]
  TGI: 28.2 µM
[22]
  TGI: 8.22 µM
[23]
  TGI: 3.16 µM
[24]
  TGI: 3.21 µM
[25]
  TGI: 9.72 µM
[26]
  TGI: 3.9 µM
[27]
  TGI: 15.9 µM
[28]
  TGI: 7.78 µM
[29]
  TGI: 78.2 µM
[30]
  TGI: 14.9 µM
[31]
  TGI: 15.9 µM
[32]
  TGI: 3.9 µM
[33]
  TGI: 2.61 µM
[34]
  TGI: 23.2 µM
[35]
  TGI: 5.15 µM
[36]
  TGI: 7.05 µM
[37]
  TGI: 13.8 µM
[38]
  TGI: 3.2 µM
[39]
  TGI: 6.33 µM
[40]
  TGI: 16.9 µM
[41]
  TGI: 3.85 µM
[42]
  TGI: 3.29 µM
[43]
  TGI: 3.43 µM
[44]
  TGI: 4.59 µM
[45]
  TGI: 18 µM
[46]
  TGI: 8.36 µM
[47]
  TGI: 19.5 µM
[48]
  TGI: 2.6 µM
[49]
  TGI: 8.37 µM
[50]
  TGI: 2.24 µM
[51]
  TGI: 4.79 µM
[52]
  TGI: 3.49 µM
[53]
  TGI: 3.56 µM
[54]
  TGI: 3.75 µM
[55]
  TGI: 3.03 µM
[56]
  TGI: 3.21 µM
[57]
  TGI: 3.06 µM
[58]
  TGI: 1.55 µM
[59]
  TGI: 4 µM
[60]
  TGI: 3.81 µM
[61]
  TGI: 19.2 µM
[62]
  TGI: 5.51 µM
[63]
  TGI: 4.54 µM
[64]
  TGI: 11.5 µM

## COCC1C(=O)c2cc3c(cc2C12C=CC1(C=C2)OCCO1)OCO3 (configuration not stated)
[1]
  TGI: 26.9 µM
[2]
  TGI: 30.4 µM
[3]
  TGI: 20.9 µM
[4]
  TGI: 6.5 µM
[5]
  TGI: 29.7 µM
[6]
  TGI: 6.8 µM
[9]
  TGI: 16 µM
[10]
  TGI: 38 µM
[11]
  TGI: 34.9 µM
[12]
  TGI: 22.8 µM
[14]
  TGI: 2.96 µM
[15]
  TGI: 29.4 µM
[16]
  TGI: 27.7 µM
[17]
  TGI: 25.3 µM
[19]
  TGI: 4.54 µM
[20]
  TGI: 29.8 µM
[21]
  TGI: 28.9 µM
[22]
  TGI: 29.3 µM
[23]
  TGI: 9.82 µM
[26]
  TGI: 6.77 µM
[28]
  TGI: 22.7 µM
[30]
  TGI: 36.2 µM
[31]
  TGI: 31.9 µM
[32]
  TGI: 29.6 µM
[33]
  TGI: 9.6 µM
[35]
  TGI: 24.6 µM
[36]
  TGI: 28.1 µM
[37]
  TGI: 11.6 µM
[39]
  TGI: 32.6 µM
[40]
  TGI: 18.2 µM
[41]
  TGI: 27.4 µM
[42]
  TGI: 12.6 µM
[43]
  TGI: 14.7 µM
[44]
  TGI: 14 µM
[47]
  TGI: 28.9 µM
[48]
  TGI: 3.96 µM
[49]
  TGI: 27.9 µM
[50]
  TGI: 8.76 µM
[52]
  TGI: 22.9 µM
[53]
  TGI: 26.5 µM
[54]
  TGI: 13.1 µM
[57]
  TGI: 5.97 µM
[58]
  TGI: 4.38 µM
[65]
  TGI: 17.9 µM
[59]
  TGI: 29.9 µM
[60]
  TGI: 15 µM
[61]
  TGI: 4.1 µM
[66]
  TGI: 11.2 µM
[62]
  TGI: 27.4 µM
[64]
  TGI: 24.5 µM

## COc1cc(C2c3cc4c(cc3OC3(O)COC(=O)C23)OCO4)cc(OC)c1OC (configuration not stated)
[1]
  TGI: > 100 µM
[2]
  TGI: > 100 µM
[3]
  TGI: 91.5 µM
[4]
  TGI: > 100 µM
[67]
  TGI: > 100 µM
[5]
  TGI: 79 µM
[6]
  TGI: 59.1 µM
[8]
  TGI: > 100 µM
[9]
  TGI: > 100 µM
[11]
  TGI: > 100 µM
[12]
  TGI: > 100 µM
[13]
  TGI: > 100 µM
[14]
  TGI: > 100 µM
[15]
  TGI: > 100 µM
[16]
  TGI: > 100 µM
[17]
  TGI: > 100 µM
[20]
  TGI: > 100 µM
[21]
  TGI: > 100 µM
[22]
  TGI: 79.3 µM
[23]
  TGI: > 100 µM
[25]
  TGI: > 100 µM
[26]
  TGI: > 100 µM
[27]
  TGI: > 100 µM
[28]
  TGI: 54.3 µM
[29]
  TGI: > 100 µM
[30]
  TGI: > 100 µM
[31]
  TGI: > 100 µM
[33]
  TGI: > 100 µM
[34]
  TGI: > 100 µM
[35]
  TGI: > 100 µM
[37]
  TGI: > 100 µM
[38]
  TGI: > 100 µM
[39]
  TGI: > 100 µM
[41]
  TGI: > 100 µM
[42]
  TGI: > 100 µM
[43]
  TGI: > 100 µM
[44]
  TGI: > 100 µM
[47]
  TGI: 54.5 µM
[48]
  TGI: 54.1 µM
[49]
  TGI: 74.5 µM
[50]
  TGI: > 100 µM
[52]
  TGI: > 100 µM
[53]
  TGI: > 100 µM
[54]
  TGI: > 100 µM
[57]
  TGI: 97.7 µM
[58]
  TGI: > 100 µM
[65]
  TGI: 96.7 µM
[59]
  TGI: > 100 µM
[60]
  TGI: > 100 µM
[61]
  TGI: > 100 µM
[66]
  TGI: > 100 µM
[62]
  TGI: > 100 µM
[64]
  TGI: > 100 µM

Source: PubChem BioAssay (NCI)
